Test results: PMC8900595 (Journal of medicinal chemistry, 2021)

Tested on: H1N1 A/WSN/1933 virus
Assay type: cell-based, influenza A virus

With CCN(c1ccccc1C)S(=O)(=O)c1cc(Cl)ccc1Cl [compound 1, 2,5-dichloro-N-ethyl-N-(o-tolyl)-benzenesulfonamide] the “concentration required for maximum virus inhibition (three logs) while maintaining enough virus production for passages” value was 0.5 μM.
